pEC50, pIC50: −log10 of the molar value.

One test addresses T1, Phosphoenolpyruvate carboxykinase, cytosolic [GTP] (Homo sapiens, UniProt P35558).
T1 sequence (P35558 whole entry): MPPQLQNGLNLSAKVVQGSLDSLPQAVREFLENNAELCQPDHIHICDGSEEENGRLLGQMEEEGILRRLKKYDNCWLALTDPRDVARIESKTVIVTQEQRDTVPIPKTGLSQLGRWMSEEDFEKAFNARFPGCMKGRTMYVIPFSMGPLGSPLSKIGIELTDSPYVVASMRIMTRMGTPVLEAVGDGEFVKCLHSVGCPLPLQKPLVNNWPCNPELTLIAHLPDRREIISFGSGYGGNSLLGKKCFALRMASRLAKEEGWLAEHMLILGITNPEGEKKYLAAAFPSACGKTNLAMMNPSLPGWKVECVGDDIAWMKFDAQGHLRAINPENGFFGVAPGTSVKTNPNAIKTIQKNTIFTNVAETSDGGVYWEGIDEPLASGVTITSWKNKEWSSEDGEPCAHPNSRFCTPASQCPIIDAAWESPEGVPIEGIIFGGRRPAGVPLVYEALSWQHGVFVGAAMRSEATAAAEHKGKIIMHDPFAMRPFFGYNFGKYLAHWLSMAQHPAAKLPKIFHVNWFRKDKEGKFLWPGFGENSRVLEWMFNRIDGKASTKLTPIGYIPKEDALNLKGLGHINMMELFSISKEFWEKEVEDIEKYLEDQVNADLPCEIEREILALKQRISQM
Put plainly: Inhibition of human cPEPCK.
Turning to `Cc1nn(C)cc1S(=O)(=O)Nc1ccc(Cc2nc3c([nH]2)c(=O)n(Cc2ccccc2F)c(=O)n3CC2CC2)cc1`, the pIC50 is 6.62.

On to `CN(C)CC(=O)Nc1ccc(Cc2nc3c([nH]2)c(=O)n(Cc2ccccc2F)c(=O)n3CC2CC2)cc1`, for which the pIC50 was 5.68.

Consider `CCCCn1c(=O)n(Cc2ccccc2F)c(=O)c2[nH]c(Cc3ccc(NS(=O)(=O)c4c(C)nn(C)c4Cl)cc3)nc21`, for which the pIC50 is 6.27.

In turn, `CCCCn1c(=O)n(Cc2ccccc2F)c(=O)c2[nH]c(Cc3ccc(NC(=O)C(F)(F)F)cc3)nc21` gave a pIC50 of 5.64.

The compound `CCCCn1c(=O)n(Cc2ccccc2F)c(=O)c2[nH]c(Cc3ccc(NC(C)=O)cc3NC(C)=O)nc21` had a pIC50 of 5.06.

`Nc1ccc(Cc2nc3c([nH]2)c(=O)n(Cc2ccccc2F)c(=O)n3CC2CC2)cc1` gave a pIC50 of 5.81.

`CC(=O)Nc1ccc(Cc2nc3c([nH]2)c(=O)n(Cc2ccccc2F)c(=O)n3CC2CC2)cc1` gave a pIC50 of 6.16.

Compound `O=C(Nc1ccc(Cc2nc3c([nH]2)c(=O)n(Cc2ccccc2F)c(=O)n3CC2CC2)cc1)C(F)(F)F` gave a pIC50 of 5.74.

In turn, `CCCCn1c(=O)n(Cc2ccccc2F)c(=O)c2[nH]c(Cc3ccc(N)cc3)nc21` gave a pIC50 of 5.59.

Regarding `CCCCn1c(=O)n(Cc2ccccc2F)c(=O)c2[nH]c(Cc3ccc(NC(C)=O)cc3)nc21`, the pIC50 was 5.68.

In turn, `CCCCn1c(=O)n(Cc2ccccc2F)c(=O)c2[nH]c(Cc3ccc(N)cc3N)nc21` showed a pIC50 of 5.25.

The next test addresses T2, Phosphoenolpyruvate carboxykinase, cytosolic [GTP] (Homo sapiens) (UniProt P35558).
T2 sequence (whole entry): T1 sequence (P35558 whole entry)
Put plainly: Inhibition of human cPEPCK at 1 uM.
In turn, `CCCCn1c(=O)n(Cc2ccccc2F)c(=O)c2[nH]c(Cc3ccc(NS(=O)(=O)c4ccsc4C(=O)OC)cc3)nc21` registered an inhibition of 19%.

`CCCCn1c(=O)n(Cc2ccccc2F)c(=O)c2[nH]c(Cc3ccc(NS(=O)(=O)c4cccs4)cc3)nc21`: the inhibition turned out to be 30%.

With `CCCCn1c(=O)n(Cc2ccccc2F)c(=O)c2[nH]c(Cc3ccc(NS(=O)(=O)c4ccccc4)cc3)nc21`, the inhibition amounted to 22%.

`CCCCn1c(=O)n(Cc2ccccc2F)c(=O)c2[nH]c(Cc3ccc(NS(=O)(=O)Cc4ccccc4)cc3)nc21` gave an inhibition of 31%.

A further test deals with T3, Phosphoenolpyruvate carboxykinase, cytosolic [GTP] (Rattus norvegicus, UniProt P07379).
T3 sequence (P07379 whole entry): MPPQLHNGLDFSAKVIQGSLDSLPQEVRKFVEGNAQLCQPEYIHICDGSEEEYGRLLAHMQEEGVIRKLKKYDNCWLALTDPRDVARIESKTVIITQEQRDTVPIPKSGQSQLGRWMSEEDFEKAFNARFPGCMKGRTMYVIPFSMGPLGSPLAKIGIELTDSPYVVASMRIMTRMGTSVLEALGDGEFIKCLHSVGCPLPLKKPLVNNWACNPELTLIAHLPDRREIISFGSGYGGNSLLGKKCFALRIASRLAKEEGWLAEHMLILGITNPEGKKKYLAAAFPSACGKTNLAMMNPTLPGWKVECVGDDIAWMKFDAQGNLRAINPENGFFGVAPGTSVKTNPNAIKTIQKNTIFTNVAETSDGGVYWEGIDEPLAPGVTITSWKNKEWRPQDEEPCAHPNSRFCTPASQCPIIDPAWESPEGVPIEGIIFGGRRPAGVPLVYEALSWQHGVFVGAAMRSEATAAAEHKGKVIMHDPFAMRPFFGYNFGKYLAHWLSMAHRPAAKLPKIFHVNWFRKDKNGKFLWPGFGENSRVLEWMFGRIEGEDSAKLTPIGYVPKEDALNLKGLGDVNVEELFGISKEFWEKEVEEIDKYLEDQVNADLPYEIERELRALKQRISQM
The test is described as follows: Inhibition of cPEPCK in rat H4IIE cells assessed as effect on glucose production. The test is classed as cell-based.
On to `Cc1nn(C)cc1S(=O)(=O)Nc1ccc(Cc2nc3c([nH]2)c(=O)n(Cc2ccccc2F)c(=O)n3CC2CC2)cc1`, for which the pEC50 was 5.25.

`CCCCn1c(=O)n(Cc2ccccc2F)c(=O)c2[nH]c(Cc3ccc(NS(=O)(=O)c4c(C)nn(C)c4Cl)cc3)nc21`: the pEC50 is 5.40.

As to `Cn1cc(S(=O)(=O)Nc2ccc(Cc3nc4c([nH]3)c(=O)n(Cc3ccccc3F)c(=O)n4CC3CC3)cc2)cn1`, the pEC50 is 5.06.

In the case of `Cc1nc(N)sc1S(=O)(=O)Nc1ccc(Cc2nc3c([nH]2)c(=O)n(Cc2ccccc2F)c(=O)n3CC2CC2)cc1`, the pEC50 is 5.09.

As to `CC(=O)Nc1ccc(Cc2nc3c([nH]2)c(=O)n(Cc2ccccc2F)c(=O)n3CC2CC2)cc1`, the pEC50 is 5.33.

For the compound `Cc1nn(C)c(Cl)c1S(=O)(=O)Nc1ccc(Cc2nc3c([nH]2)c(=O)n(Cc2ccccc2F)c(=O)n3CC2CC2)cc1`, the pEC50 is 5.66.

In the case of `O=c1c2[nH]c(Cc3ccc(NS(=O)(=O)c4cccnc4)cc3)nc2n(CC2CC2)c(=O)n1Cc1ccccc1F`, the pEC50 is 5.26.

In the case of `CCCCn1c(=O)n(Cc2ccccc2F)c(=O)c2[nH]c(Cc3ccc(NC(C)=O)cc3)nc21`, the pEC50 was 5.07.

Take `Cc1noc(C)c1S(=O)(=O)Nc1ccc(Cc2nc3c([nH]2)c(=O)n(Cc2ccccc2F)c(=O)n3CC2CC2)cc1`: the pEC50 is 5.47.

The values above are taken from ChEMBL document CHEMBL1145376, “C-8 Modifications of 3-alkyl-1,8-dibenzylxanthines as inhibitors of human cytosolic phosphoenolpyruvate carboxykinase” (Bioorg Med Chem Lett, 2007).
